From patent publication US9497963B2, “Methods and compositions for control of gypsy moth, Lymantria dispar” (Simon Fraser University, priority 2008, dated 2016)
Entries after “also recorded” stand apart in the source; their conditions may differ.

Assays:
L. dispar PBP 2 = assay: Pheromone-binding protein (PBP) ligand binding assay, PBP2; parameters: species or system Lymantria dispar
Description: A. The protein and ligand are incubated in buffer overnight. B. For half of the incubation mixture, the free ligand (L) is separated from the protein-bound ligand (P.L) by size-exclusion chromatography on P2 Gel (BioRad, exclusion limit 2000 Da). The protein elutes from the small column bed, with its ligand bound (see Examples and […] et al. 2000; Staddon and Everton 1980), while the free ligand is retained on the column ([…] et al. 2000). C. […] The extract from the filtrate (B) contains the protein-bound ligand and the extract from the incubation mixture (A) contains all the ligand (bound and free) present in the aqueous phase. The extracts are analyzed by GC-MS, to obtain values for total ligand in solution (L+P.L) and for protein-bound ligand (P.L). These can then be used to calculate % bound (Table 3). These assays were performed as described in FIG. 3 and as follows: L. dispar PBP 1 or PBP 2 was incubated with the test compound or mini-library. The PBP and the ligand(s) (L) were left to equilibrate (eq 2) overnight. The non-bound ligand was then separated from the protein-bound material (PBP.L) by size-exclusion chromatography. By determining the total ligand in solution at equilibrium (eq. 3) and the protein-bound ligand, it is possible to estimate the percentage of ligand bound to the protein at equilibrium (eq. 4). […] This binding assay has been validated extensively in previous studies ([…] et al. 2000). The components of each mini-library separated cleanly by GC, so it was possible to monitor binding of individual components. PBP+L⇄PBP·L (eq. 2) [L]tot=[L]+[PBP·L] (eq. 3) % bound=100×[PBP·L]/[L]tot (eq. 4) Results: The members of each mini-library separated cleanly by GC, therefore it was possible to monitor binding of individual members to PBP1 or PBP2, the two known PBPs in the gypsy moth, by extraction from the aqueous incubation mixture, followed by GC analysis of the extract (FIG. 3).

[1] = tested on: response of L. dispar antennae to (+)-disparlure; assay: Competitive electroantennogram (EAG) screen, inhibition of response to (+)-disparlure (Example 4); parameters: species or system Lymantria dispar; conditions: for inhibition at 0.001 mg / inhibition at 0.01 mg / inhibition at 0.1 mg: Lymantria dispar, means ± S.E.; for inhibition at 0.001 mg: dose 1 μg on cartridge; for inhibition at 0.01 mg: dose 10 μg on cartridge; for inhibition at 0.1 mg: dose 100 μg on cartridge
Description: In this assay, libraries and individual compounds are tested for their ability to inhibit the antennal response to the sex attractant pheromone of the gypsy moth, (7R,8S) 2-methyl-7,8-epoxyoctadecane, also known as (+)-disparlure. The controls consisted of a puff of clean air (negative) or of air passed over a cartridge impregnated with (+)-disparlure (100 ng) (positive). The treatments consisted of 100 ng of (+)-disparlure in combination with a compound or library at 1, 10 or 100 μg, on a cartridge over which the air puff was passed. The small arrows above the trace denote the times where the air was puffed over the antenna.
For some compounds, such as the para Compounds 2c{n}, 2c{n,n} and libraries 3c{n,1-5}, EAG competitive assays were performed to investigate whether the diethers inhibit the response of L. dispar antennae to the main component of the sex attractant pheromone cis-(7R,8S)-epoxy-2-methyloctadecane [(+)-disparlure] (FIG. 4). For EAGs a male moth antenna was mounted and placed in front of a stimulus-delivery glass tubing (160×5 mm ID) with a side orifice (2 mm diam) near (2 cm) the distal opening. The tubing was connected to one port of an apparatus (Stimulus Controller CS-05, Syntech Research and Equipment, NL-1200BM Hilversum, The Netherlands) that generated a constant stream of clean air (300 ml/min). The second port of the apparatus was connected to a Pasteur pipette inserted through the side orifice of the stimulus-delivery tubing. The test stimulus was applied to a disc of Whatman #1 filter paper inside the Pasteur pipette and was discharged through a 0.3-sec pulse of air (600 ml/min) Receptor potentials of the antennae in response to test stimuli were recorded with a Syntech IDAC probe, amplifier and interfaced board, and were analyzed with EAG Syntech Software Version 2.4 (1996) Inhibition (%) was calculated as: % inhibition=(Dd−Ds)/Dd×100 (eq. 1)
Where Dd is the depolarization observed with pure disparlure (corrected for clean air background) and Ds is the depolarization with disparlure+sample. See FIG. 4 for a representative EAG inhibition assay trace.

[2] = tested on: male gypsy moth antenna response to mixed pheromone/modulator plume; assay: EAG peak broadening (PB) (Example 11); parameters: species or system Lymantria dispar; conditions: for activity (% peak broadening): mixed plume, 100 μg compound and 100 ng pheromone (puff v vs puff ii)
Description: A mixed pheromone/modulator plume could elicit a prolonged response (FIG. 1A, puff v; FIG. 2), and this was termed peak broadening (PB). PB was calculated from the EAG traces as follows: PB=100×(Δtv−Δtii)/Δtii
Where Δt was the width of the EAG peak (in s) from the start of the depolarization to the return to background potential.

L. dispar PBP 1 = assay: Pheromone-binding protein (PBP) ligand binding assay, PBP1; parameters: species or system Lymantria dispar
Procedure, shortened: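 L. dispar PBP1 or PBP2 equilibrated overnight in buffer with test compound or mini-library; free ligand removed by size-exclusion chromatography on P2 gel. Total and protein-bound ligand extracted and quantified by GC-MS per component; % bound = 100×[PBP·L]/[L]tot.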

male gypsy moth antenna [3] = assay: EAG effects of 3c{1,3} with (+)-disparlure at different ratios (Example 14); parameters: species or system Lymantria dispar; conditions: for STI (short-term inhibition): mixture relative to first puff of pure (+)-disparlure
Excerpt: The compound has the following effects in the EAG at the following ratios: […]

gypsy moth sensillum = assay: Single sensillum recordings; parameters: species or system Lymantria dispar; conditions: (+)-disparlure and compound mixed 1:1000
moths = assay: Simple behavioural tests (films of moths exposed to puffs); type: in vivo, Lymantria dispar; conditions: (+)-disparlure:compound 1:1000 vs pheromone alone
male gypsy moth antenna [4] = assay: EAG dose response and ratio tests of (+)-disparlure:3c{1,3} (Example 16); parameters: species or system Lymantria dispar; conditions: (+)-disparlure:compound ratios about 1:300 to about 1:2000 or greater
Description: Dose response and ratio tests were done at each of the following (+)-disparlure concentrations: 1 ng, 10 ng, 50 ng, 100 ng, 500 ng and 1000 ng, the following ratios of (+)-disparlure:3c{1,3} were tested: 1:100, 1:300, 1:500, 1:700, 1:1000, 1:1500 and 1:2000 (FIG. 19).

gypsy moths = assay: Field test of trap catches, Northern Japan 2009 (Example 12); type: in vivo, Lymantria dispar; conditions: (+)-dis 40 μg/lure & compound 40 mg/lure, vs (+)-dis alone
Description: Ten traps were used per treatment. The solvent used to deliver the compounds onto the lures was doubly distilled hexane. The hexane was evaporated prior to packing and shipping the lures. The field test was conducted in 10 replicates in Northern Japan. The test was conducted Aug. 16-18, 2009, in an area where gypsy moths are known to live. […] Traps were arranged randomized, placed on platforms. The experiment was conducted blind. The lures contained 40 μg disparlure/lure, a low dose for a field trial (typically 100 μg-1 mg are used). For each treatment, 10 traps were deployed.

[5] = member tested within library 3c{1, 1-5}
[6] = tested as single compound, means ± S.E., 4 replicates
[7] = member tested within library 3c{3, 1-5}, Nd = not detected in GC-MS
[8] = member tested within library 3c{3, 1-5}
[9] = member tested within library 3c{2, 1-5}
[10] = member tested within library 3c{5, 1-5}

SMILES	PBP2 (% bound) (L. dispar PBP 2; [5])	PBP2 (% bound) (L. dispar PBP 2; [6])	PBP1 (% bound) (L. dispar PBP 1; [5])	PBP1 (% bound) (L. dispar PBP 1; [6])	PBP2 (% bound) (L. dispar PBP 2; [7])	PBP1 (% bound) (L. dispar PBP 1; [8])	PBP2 (% bound) (L. dispar PBP 2; [9])	PBP1 (% bound) (L. dispar PBP 1; [9])	inhibition at 0.001 mg [1]	inhibition at 0.01 mg [1]	inhibition at 0.1 mg [1]	activity (% peak broadening) [2]	trap catches in the field (gypsy moths)	inhibitory activity on antennal pheromone responses (in words) [1]	other results
COc1ccc(OC)cc1 [3c{1,1}, 1,4-Dimethoxy benzene]	19 ± 0.9%	13 ± 2.1%	24 ± 0.3%	40 ± 2.5%					4 ± 6%	-8 ± 9%	38 ± 7%	77 ± 12%			
CCCOc1ccc(OC)cc1 [3c{1,3}, 1-methoxy-4-propoxy-benzene]	5 ± 2.1%		7 ± 0.5%		7 ± 0.2%	13 ± 0.3%						175 ± 23%	enhanced the trap catches significantly		STI (short-term inhibition) (male gypsy moth antenna [3]; 100 ng (+)-disparlure + 1 μg 3c{1,3}, ratio 1:10 by mass): 28 ± 16 (6); STI (short-term inhibition) (male gypsy moth antenna [3]; 100 ng (+)-disparlure + 10 μg 3c{1,3}, ratio 1:100 by mass): −2 ± 5 (6); STI (short-term inhibition) (male gypsy moth antenna [3]; 100 ng (+)-disparlure + 100 μg 3c{1,3}, ratio 1:1000 by mass): 48 ± 14 (6); LTI (long-term inhibition) (male gypsy moth antenna [3]; (+)-disparlure puff immediately after last mixed puff (1:1000 ratio), relative to first (+)-disparlure reference puff): 39 ± 12 (6); enhancement of neuronal activity (gypsy moth sensillum): significant; behaviour of moths exposed to puffs (moths): excited and violently flap their wings much longer; EAG depolarization shape (in words) (male gypsy moth antenna [4]): increasingly broad depolarizations; peak broadening / prolongation of the EAG signal (in words) ([2]; 1:1000 ratios): significant prolongation of the EAG signal; also recorded: strongest peak broadening compound
CCOc1ccc(OCC)cc1 [3c{2,2}, 1,4-Diethoxy benzene]		19 ± 0.2%		28 ± 0.1%			33 ± 0.6%	14 ± 0.5%	4 ± 13%	45 ± 6%	-3 ± 13%	71 ± 30%			
CCCOc1ccc(OCC)cc1 [3c{2,3}, 1-ethoxy-4-propoxy benzene]					6 ± 0.2%	13 ± 0.3%	22 ± 0.3%	10 ± 0.3%				94 ± 24%	enhanced the trap catches significantly		

Now from value to compound, other results behind:

PBP2 (% bound) (L. dispar PBP 2; [5])	PBP2 (% bound) (L. dispar PBP 2; [6])	PBP1 (% bound) (L. dispar PBP 1; [5])	PBP1 (% bound) (L. dispar PBP 1; [6])	PBP2 (% bound) (L. dispar PBP 2; [7])	PBP1 (% bound) (L. dispar PBP 1; [8])	PBP2 (% bound) (L. dispar PBP 2; [9])	PBP1 (% bound) (L. dispar PBP 1; [9])	SMILES	inhibition at 0.001 mg [1]	inhibition at 0.01 mg [1]	inhibition at 0.1 mg [1]	activity (% peak broadening) [2]	trap catches in the field (gypsy moths)	inhibitory activity on antennal pheromone responses (in words) [1]	other results
	5 ± 0.2%		15 ± 0.7%	3 ± 0.1%	4 ± 0.3%			CCCOc1ccc(OCCC)cc1 [3c{3,3}, 1,4-Dipropoxy benzene]	5 ± 16%	55 ± 7%	-3 ± 15%			moderate inhibitory activity	
	8 ± 0.2%		9 ± 0.7%					CC(C)CCOc1ccc(OCCC(C)C)cc1 [3c{5,5}, 1,4-Di-(3-methyl-butyloxy) benzene]	63 ± 12%	38 ± 22%	64 ± 11%			moderate inhibitory activity	PBP2 (% bound) (L. dispar PBP 2; [10]): 1 ± 0.1%; PBP1 (% bound) (L. dispar PBP 1; [10]): 5 ± 0.1%
